These results are taken from US5108930A, “Aminoguanidine assay and applications thereof” (Alteon Inc., priority 1990, dated 1992).

In data set [1] the test system is diamine oxidase. As to conditions: cited from earlier work.
Data set [2] deals with histaminase. As to conditions: cited from earlier work.
The test system of data set [3] is histamine. As to conditions: human pregnancy (title of cited paper); cited from earlier work.
Data set [4] relates to glucose-mediated cross-linking of proteins. As to conditions: cited from earlier work.
A short description of data set [5]: elimination half-life of aminoguanidine in plasma of patients (HPLC assay) for measurement of kidney function. Type of data set: in vivo, human. As to conditions: 300 mg oral aminoguanidine hydrochloride; for half-life: human, plasma, po, 300 mg, plasma at 10, 14, 18 hours, read-out: AG T1/2 (converted). The method, then: A) A single 300 mg dose of aminoguanidine hydrochloride is administered to the patient. Administration may be either by a capsule or tablet taken orally, or by a liquid syrup, elixir or the like.
B) After administration of the aminoguanidine or analog material, periodic collection of plasma samples is then conducted. For example, minimum 3 ml blood samples may be collected, and in the instance where aminoguanidine is administered in dry form as in a pill, the first sample may be taken 10 hours after ingestion, the second sample may be taken 14 hours after ingestion, and the third sample may be taken 18 hours after ingestion. In the instance where a liquid is administered, a similar regimen may be observed.
C) The samples collected at the intervals indicated may then be processed in accordance with the method of the present invention to determine aminoguanidine concentration.
D) Thereafter, the elimination half-life (T1/2) may be determined. Particularly, the data may be interpreted and determined by reference to the relationship wherein the slope of the logarithmic decline of plasma concentration over time is identified as the elimination rate (Kelim). Elimination half-life (T1/2) is related to Kelim by the following equation: [formula]
To a 0.5 mL plasma sample was added 0.5 mL of the working internal standard solution (10 μg/mL N-ethyl aminoguanidine tosylate in 7.5% trichloracetic acid). After vortexing (10 sec.) and centrifugation in a microfuge (Eppendorf, 14,000 rpm, 10 min.), the supernatant was decanted into a clean screw top culture tube containing 0.1 mL of an aqueous (10 mg/mL) solution of reacting agent (6-methyl-2-pyridine-carboxaldehyde). The sample was then capped tightly and reacted in a heating block (95°-100° C.) for 10 minutes. After cooling, i the sample was transferred into an HPLC vial, from which a 200 μL aliquot was injected for HPLC analysis.
A Waters Associates Model 510 pump was utilized with a radial compression column (Waters Novapak CN, 8 mm ×10 cm, 4 μm particle size) and a cyano (Waters Resolve Guard-Pak CN) precolumn. Detection was performed using a variable ultraviolet detector (Waters 484) at 302 nm. The mobile phase consisted of (volume to volume) 15% acetonitrile: 10% methanol: 75% of 0.01 M each of 1heptanesulfonic acid and sodium phosphate monobasic. Flow rate was maintained isocratically at 2.0 mL/min. at ambient temperature. Sequential automatic injections were made via a programmable sampler (Waters WISP 712).
All data acquisitions were performed with a Waters Maxima 820 system. A linear test squares analysis of the ratios of drug peak height to internal standard peak height versus concentrations added to human plasma in standards constituted daily instrumentation standardization. Interpolation from the linear regression line determined concentrations of aminoguanidine in quality control and unknown assayed samples
[…] After administration of this total dosage, plasma samples were collected from each of the patients at intervals of 10 hours, 14 hours and 18 hours after administration. The plasma samples were then taken and subjected to the assay of the present invention, in accordance with the protocol utilized in Example 1.
Accordingly, the samples were first combined with a quantity of a working internal standard solution of N-ethyl aminoguanidine tosylate in 7.5 percent trichloroacetic acid. The resulting samples were vortexed for 10 seconds and centrifuged for a period of 10 minutes at a speed of 14,000 rpm. The supernatants were then decanted into a culture tube containing 0 1 ml of an aqueous solution ([…]) of 6-methyl picolinaldehyde. The samples were then tightly capped and reacted in a heating block for a period of 10 minutes, and after cooling, were transferred into HPLC vials from which aliquots were then injected for HPLC analysis.
A radial compression chromatographic column was utilized with an isocratic flow rate and under paired-ion conditions. […]

The structures appear in SMILES notation. Entries after “also recorded” stand apart in the source; their conditions may differ. Read-outs that look alike come from different tables or passages of the source.

Consider `N=C(N)NN` [aminoguanidine], for which the “inhibition of diamine oxidase” value in data set [1] is recorded as “selective inhibitor”. Further, the “inhibitory action on the enzyme histaminase” value in data set [2] is “inhibitory action”. For the same compound, the levels of histamine entry in data set [3] is “increase levels of histamine”. In data set [4], the “inhibition of glucose-mediated cross-linking of proteins” value was “inhibitor of glucose-mediated cross-linking of proteins”. In addition, the “relationship between aminoguanidine half-life and kidney function (GFR), in words” value in data set [5] is “fairly consistent and linear relationship; also recorded: excellent linear correlation; also recorded: inverse relationship”. Moreover, the “correlation coefficient r of aminoguanidine T1/2 with GFR” value in data set [5] (n=18) is given as 0.875. Also, the half-life in data set [5] (patient 1, GFR 12.8) was 24.6 h; in data set [5] (patient 2, GFR 52.4) it was 14.2 h; in data set [5] (patient 3, GFR 116.3), 3.83 h; in data set [5] (patient 4, GFR 44.1) it was 21.8 h; in data set [5] (patient 5, GFR 31.1), 19 h; in data set [5] (patient 6, GFR 80.5), 6.78 h. Also, the half-life was 14.8 h in data set [5] (patient 7, GFR 26.7); 24.9 h in data set [5] (patient 8, GFR 12.1); 4.73 h in data set [5] (patient 9, GFR 117.2); 3.94 h in data set [5] (patient 10, GFR 148.9); 6.82 h in data set [5] (patient 11, GFR 111.9); 6.08 h in data set [5] (patient 12, GFR 103.8). The half-life was 14.9 h in data set [5] (patient 13, GFR 41.6); 9.54 h in data set [5] (patient 14, GFR 39.2); 4.81 h in data set [5] (patient 15, GFR 113.2); 6.03 h in data set [5] (patient 16, GFR 82.2); 7.05 h in data set [5] (patient 18, GFR 131.3); 6.46 h in data set [5] (patient 19, GFR 131.1).
